The record followed here is patent US6020521A, “Macrolide LHRH antagonists” (Abbott Laboratories, priority 1998, dated 2000).

This assay deals with T1, LHRH rat pituitary receptor (Rattus norvegicus, UniProt P30969).
T1 construct: from tissue; host or cells: rat pituitary
T1 sequence (P30969 1-327): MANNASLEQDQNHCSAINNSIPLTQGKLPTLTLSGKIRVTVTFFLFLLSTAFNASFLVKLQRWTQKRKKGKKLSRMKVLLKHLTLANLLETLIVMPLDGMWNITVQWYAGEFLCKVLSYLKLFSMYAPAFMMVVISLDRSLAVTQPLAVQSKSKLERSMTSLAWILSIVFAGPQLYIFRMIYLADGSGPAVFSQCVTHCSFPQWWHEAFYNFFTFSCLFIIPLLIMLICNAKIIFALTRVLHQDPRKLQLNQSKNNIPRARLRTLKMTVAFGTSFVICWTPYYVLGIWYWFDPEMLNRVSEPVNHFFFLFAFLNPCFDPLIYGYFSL
The assay can be described thus: LHRH rat pituitary receptor binding (pKI). The following applies: receptor binding affinity, negative logarithm of the equilibrium dissociation constants. On the procedure: Representative compounds of the present invention were evaluated in in vitro tests for LHRH rat pituitary receptor binding (pKI) and for LH inhibition from rat pituitary cells for antagonist potency (pA2). The tests employed the methods detailed in F. Haviv, et al. J. Med. Chem., 32: 2340-2344 (1989). The receptor binding affinity (pKI) is the negative logarithm of the equilibrium dissociation constants.

The Ki is a measure of affinity in units of concentration, obtained from inhibition or displacement. A lower Ki goes with tighter binding. Compound `CC[C@H]1OC(=O)[C@H](C)[C@@H](OC(=O)N2C[C@@H](C)OC2=O)[C@H](C)[C@@H](O[C@@H]2O[C@H](C)C[C@H](N(C)CC3CC3)[C@H]2O)[C@](C)(OC)C[C@@H](C)C(=O)[C@H](C)[C@H]2N(CCc3ccc(Cl)c(Cl)c3)C(=O)O[C@]12C` [Example 39, 11-Deoxy-11-[carboxy(3,4-dichlorophenethyl)amino]-3-O-[5-(R)-methyl-oxazolidin-2-one]carbamoyl-5-O-(3'-N-desmethyl-3'-N-cyclopropylmethyl)desosaminyl-6-O-methyl-erythronolide A 11,12-(cyclic carbamate)] showed a Ki of 2.82 nM.

Turning to `CC[C@H]1OC(=O)[C@H](C)[C@@H](OC(=O)N2C(=O)SC[C@@H]2C)[C@H](C)[C@@H](O[C@@H]2O[C@H](C)C[C@H](N(C)CC3CC3)[C@H]2O)[C@](C)(OC)C[C@@H](C)C(=O)[C@H](C)[C@H]2N(CCc3ccc(Cl)c(Cl)c3)C(=O)O[C@]12C` [Example 40, 11-Deoxy-11-[carboxy(3,4-dichlorophenethyl)amino]-3-O-[4-(S)-methyl-thiazolidin-2-one]carbamoyl-5-O-(3'-N-desmethyl-3'-N-cyclopropylmethyl)desosaminyl-6-O-methyl-erythronolide A 11,12-(cyclic carbamate)], the Ki amounted to 8.13 nM.

As for `CC[C@H]1OC(=O)[C@H](C)[C@@H](OC(=O)N2C(=S)OC[C@@H]2C)[C@H](C)[C@@H](O[C@@H]2O[C@H](C)C[C@H](N(C)CC3CC3)[C@H]2O)[C@](C)(OC)C[C@@H](C)C(=O)[C@H](C)[C@H]2N(CCc3ccc(Cl)c(Cl)c3)C(=O)O[C@]12C` [Example 41, 11-Deoxy-11-[carboxy(3,4-dichlorophenethyl)amino]-3-O-[4-(S)-methyl-oxazolidin-2-thione]carbamoyl-5-O-(3'-N-desmethyl-3'-N-cyclopropylmethyl)desosaminyl-6-O-methyl-erythronolide A 11,12-(cyclic carbamate)], the Ki was 10.2 nM.

Turning to `CC[C@H]1OC(=O)[C@H](C)[C@@H](OC(=O)N2C(=O)OC[C@@H]2C)[C@H](C)[C@@H](O[C@@H]2O[C@H](C)C[C@H](N(CC3CC3)CC3CC3)[C@H]2O)[C@](C)(OC)C[C@@H](C)C(=O)[C@H](C)[C@H]2N(CCc3ccc(Cl)c(Cl)c3)C(=O)O[C@]12C` [Example 42, 11-Deoxy-11-[carboxy(3,4-dichlorophenethyl)amino]-3-O-[4-(S)-methyl-oxazolidin-2-one]carbamoyl-5-O-(3'-bis-N-desmethyl-3'-bis-N-cyclopropylmethyl)desosaminyl-6-O-methyl-erythronolide A 11,12-(cyclic carbamate)], the affinity corresponds to a Ki of 0.661 nM. This Ki is about 15-fold lower than that of the compound before.

As to `CC[C@H]1OC(=O)[C@H](C)[C@@H](OC(=O)N2C(=O)OC[C@@H]2C)[C@H](C)[C@@H](O[C@@H]2O[C@H](C)C[C@H](N(CC3CC3)CC3CC3)[C@H]2O)[C@](C)(OC)C[C@@H](C)C(=O)[C@H](C)[C@H]2N(CCc3ccc(F)c(Cl)c3)C(=O)O[C@]12C` [Example 43, 11-Deoxy-11-[carboxy(3-chloro-4-fluorophenethyl)amino]-3-O-[4-(S)-methyl-oxazolidin-2-one]carbamoyl-5-O-(3'-bis-N-desmethyl-3'-bis-N-cyclopropylmethyl)desosaminyl-6-O-methyl-erythronolide A 11,12-(cyclic carbamate)], the affinity, expressed as Ki, was 0.692 nM.

The compound `CC[C@H]1OC(=O)[C@H](C)[C@@H](OC(=O)N2C(=O)OC[C@@H]2C)[C@H](C)[C@@H](O[C@@H]2O[C@H](C)C[C@H](N(CC3CC3)CC3CC3)[C@H]2O)[C@](C)(OC)C[C@@H](C)C(=O)[C@H](C)[C@H]2N(CCc3ccc(Cl)c(F)c3)C(=O)O[C@]12C` [Example 44, 11-Deoxy-11-[carboxy(4-chloro-3-fluorophenethyl)amino]-3-O-[4-(S)-methyl-oxazolidin-2-one]carbamoyl-5-O-(3'-bis-N-desmethyl-3'-bis-N-cyclopropylmethyl)desosaminyl-6-O-methyl-erythronolide A 11,12-(cyclic carbamate)] showed a Ki of 3.16 nM.

Consider `CC[C@H]1OC(=O)[C@H](C)[C@@H](OC(=O)N2C(=O)OC[C@@H]2C)[C@H](C)[C@@H](O[C@@H]2O[C@H](C)C[C@H](NCC3CC3)[C@H]2O)[C@](C)(OC)C[C@@H](C)C(=O)[C@H](C)[C@H]2N(CCc3ccc(Cl)c(Cl)c3)C(=O)O[C@]12C` [Example 45, 11-Deoxy-11-[carboxy(3,4-dichlorophenethyl)amino]-3-O-[4-(S)-methyl-oxazolidin-2-one]carbamoyl-5-O-(3'-bis-N-desmethyl-3'-N-cyclopropylmethyl)desosaminyl-6-O-methyl-erythronolide A 11,12-(cyclic carbamate)], for which the Ki is 8.13 nM.

`CC[C@H]1OC(=O)[C@H](C)[C@@H](OC(=O)N2C(=O)OC[C@@H]2C)[C@H](C)[C@@H](O[C@@H]2O[C@H](C)C[C@H](N(C)CC3(C)CC3)[C@H]2O)[C@](C)(OC)C[C@@H](C)C(=O)[C@H](C)[C@H]2N(CCc3ccc(Cl)c(Cl)c3)C(=O)O[C@]12C` [Example 54, 11-Deoxy-11-[carboxy(3,4-dichlorophenethyl)amino]-3-O-[4-(S)-methyl-oxazolidin-2-one]carbamoyl-5-O-[3'-N-desmethyl-3'-N-(1-methyl-cyclopropyl)methyl]desosaminyl-6-O-methyl-erythronolide A 11,12-(cyclic carbamate)] had a Ki of 1.48 nM.

The compound `CC[C@H]1OC(=O)[C@H](C)[C@@H](OC(=O)N2C(=O)OC[C@@H]2C)[C@H](C)[C@@H](O[C@@H]2O[C@H](C)C[C@H](N(C)CC3(C)CC3)[C@H]2O)[C@](C)(OC)C[C@@H](C)C(=O)[C@H](C)[C@H]2N(CCc3ccc(F)c(Cl)c3)C(=O)O[C@]12C` [Example 55, 11-Deoxy-11-[carboxy(3-chloro-4-fluorophenethyl)amino]-3-O-[4-(S)-methyl-oxazolidin-2-one]carbamoyl-5-O-[3'-N-desmethyl-3'-N-(1-methyl-cyclopropyl)methyl]desosaminyl-6-O-methyl-erythronolide A 11,12-(cyclic carbamate)] showed a Ki of 0.316 nM.

In the case of `CC[C@H]1OC(=O)[C@H](C)[C@@H](OC(=O)N2C(=O)OC[C@@H]2C)[C@H](C)[C@@H](O[C@@H]2O[C@H](C)C[C@H](N(CC3CC3)C(C)C)[C@H]2O)[C@](C)(OC)C[C@@H](C)C(=O)[C@H](C)[C@H]2N(CCc3ccc(F)c(Cl)c3)C(=O)O[C@]12C` [Example 56, 11-Deoxy-11-[carboxy(3-chloro-4-fluorophenethyl)amino]-3-O-[4-(S)-methyl-oxazolidin-2-one]carbamoyl-5-O-(3'-bis-N-desmethyl-3'-N-cyclopropylmethyl-3'-N-isopropyl)desosaminyl-6-O-methyl-erythronolide A 11,12-(cyclic carbamate)], the Ki is 0.12 nM.
